The subject of assay [1] is human keratinocytes. Description: UVB light protection: PGE2 release from UVB-irradiated in vitro cultivated human keratinocytes, ELISA (UVB-PGE2). The class given is cell-based. As to conditions: positive control aspirin at 0.03%, control with UV = 100.
Protocol: (§1) Cell Protection Effect Against UVB on In Vitro Cultivated Human Keratinocytes
(§2) Method: To carry out the tests, a defined medium (DMEM), which comprises 10% fetal calf serum, was inoculated with the keratinocytes and the plant extract (diluted with saline solution) was added 72 hours after inoculation.
(§3) The keratinocytes were then irradiated with a UVB dose (30 mJ/cm^2-tubes: DUKE GL40E).
Following further incubation for 1 day at 37° C. and at 5% CO2, the LDH and the PGE2 content in the supernatant was determined. […] The content of PGE2 was determined using an ELISA test (ELISA kit from Roche).
UVB-PGE2 prostaglandins E2 determined using an ELISA test (ELISA kit from Roche).
Assay [2] has as its system human keratinocytes. Nature of the assay: UVB light protection: LDH release from UVB-irradiated in vitro cultivated human keratinocytes (UVB-LDH). Format: cell-based. As to conditions: positive control aspirin at 0.03%, control with UV = 100.
Description: Antiinflammatory Properties In Vitro-UVB Light Protection (UVB-LDH and UVB-PGE2)
as §1
This membrane stress is indicated by the release of the cytoplasm enzyme lactate dehydrogenase (LDH). The effect of UVB radiation was investigated on keratinocytes in vitro by determining the release of the cytoplasm enzyme LDH (lactate dehydrogenase). This enzyme serves as a marker for cell damage.
as §2, §3
Following further incubation for 1 day at 37° C. and at 5% CO2, the LDH and the PGE2 content in the supernatant was determined. The content of LDH (lactate dehydrogenase) was determined by means of an enzyme reaction (kit used to investigate the LDH content from Roche). The content of PGE2 was determined using an ELISA test (ELISA kit from Roche). Following trypsin treatment, the cells were centrifuged and counted.
UVB-LDH LDH or lactate dehydrogenase determination by means of an enzyme reaction

For the compound `CC(=O)Oc1ccccc1C(=O)O` [aspirin], the PGE2 release (% of UV control) was -6% with human keratinocytes [1] (Table 4) and 0% in the assay with human keratinocytes [1] (Table 6). Also, the LDH release (% of UV control) was determined as 15% in the assay with human keratinocytes [2] (Table 4) and 0% in the assay on human keratinocytes [2] (Table 6).

These data come from patent US11234918B2, “Methods for botanical and/or algae extraction” (BASF CORPORATION, priority 2012, dated 2022).
